According to patent publication US7906156B2, “CB2 receptors blocks accumulation of human hepatic myofibroblasts: a novel antifibrogenic pathway in the liver” (priority 2003, dated 2011):
Where a name gives a salt, the structure may show the parent alone. Residues, ends and D or L forms follow the SMILES beside them. *: point of attachment. Cbz = O=C(OCc1ccccc1)*; CH2F = FC*

Columns and labels:
[1] = test system: human hepatic myofibroblasts; test: Cell viability (MTS assay) / cytotoxicity of serum-deprived hepatic myofibroblasts; assay type: cell-based; conditions: for IC50: 16 hours, MTS assay, read-out: half maximal decrease in cell viability
Protocol: Cell viability. […] CellTiter 96 AQueous One Solution reagent was added to each well and absorbance was recorded at 490 nm.

CB1 receptors = molecular target: T1, CB1 receptors (Homo sapiens, UniProt P21554); assay type: cell-based
T1 construct: host or cells: CHO cells
T1 sequence (P21554 whole entry): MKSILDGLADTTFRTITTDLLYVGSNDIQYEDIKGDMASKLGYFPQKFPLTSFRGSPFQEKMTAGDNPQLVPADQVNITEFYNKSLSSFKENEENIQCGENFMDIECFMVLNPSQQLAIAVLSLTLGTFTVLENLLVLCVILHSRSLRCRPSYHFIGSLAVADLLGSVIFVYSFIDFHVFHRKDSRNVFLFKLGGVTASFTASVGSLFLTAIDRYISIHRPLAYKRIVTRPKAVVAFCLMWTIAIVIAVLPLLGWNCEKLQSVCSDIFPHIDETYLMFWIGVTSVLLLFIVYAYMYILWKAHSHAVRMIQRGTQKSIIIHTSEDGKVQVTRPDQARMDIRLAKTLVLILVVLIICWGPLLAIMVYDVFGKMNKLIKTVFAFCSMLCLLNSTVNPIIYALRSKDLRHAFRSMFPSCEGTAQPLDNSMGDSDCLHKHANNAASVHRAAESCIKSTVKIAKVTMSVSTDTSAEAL

CB2 receptors [2] = molecular target: T2, CB2 receptors (Homo sapiens, UniProt P34972); test: forskolin-stimulated cAMP levels in CHO overexpressing CB2 receptors; assay type: cell-based; set-up: host or cells: CHO cells; conditions: CHO overexpressing CB2, 100 nM, 10 min
T2 sequence (P34972 whole entry): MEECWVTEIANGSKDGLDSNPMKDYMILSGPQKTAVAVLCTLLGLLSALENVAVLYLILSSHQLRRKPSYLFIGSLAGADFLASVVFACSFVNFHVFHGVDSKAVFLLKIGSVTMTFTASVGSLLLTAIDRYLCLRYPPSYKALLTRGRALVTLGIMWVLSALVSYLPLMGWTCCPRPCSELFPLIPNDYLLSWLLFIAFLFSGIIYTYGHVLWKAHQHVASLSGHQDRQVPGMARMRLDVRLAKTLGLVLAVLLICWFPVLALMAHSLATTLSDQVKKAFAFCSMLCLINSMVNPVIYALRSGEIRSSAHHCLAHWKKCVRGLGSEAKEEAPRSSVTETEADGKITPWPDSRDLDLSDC

[3] = test system: human hepatic myofibroblasts; test: cells; assay type: cell-based; conditions: for effect on DNA synthesis / growth / IC50 / maximal reduction of PDGF-BB-stimulated DNA synthesis: 20 ng/ml PDGF-BB; for effect on the antiproliferative effect of THC: pretreatment before THC + PDGF-BB; for IC50: 30 hrs, read-out: half maximal inhibition (IC50) of DNA synthesis; for maximal reduction of PDGF-BB-stimulated DNA synthesis: at 500 nM
caspase-3 = test: Caspase-3-like activity on cell lysates; conditions: for effect on caspase-3 activation elicited by THC: pretreatment before THC
reactive oxygen species = test: Intracellular reactive oxygen species (DCFH-DA fluorescence); assay type: cell-based, human
CB2 receptors [4] = molecular target: T2, CB2 receptors; test: [35S]GTPγS binding assay, membranes of human hepatic myofibroblasts
COX-2 = COX-2 protein induction (Western blot); conditions: 8 h
cAMP = cAMP levels in human hepatic myofibroblasts; assay type: cell-based; conditions: not shown
[5] = test system: human hepatic myofibroblasts; test: DNA laddering and DAPI nuclear morphology; assay type: cell-based
Protocol: (A) Phase-contrast analysis (Magnification ×100). […] (C) Caspase-3-like activity.
Apoptosis assays. […] Nuclear morphology was assayed using DAPI staining.

CB2 receptors [6] = molecular target: T2, CB2 receptors; test: [35S]GTPγS binding assay, membranes of CHO cells overexpressing CB2 receptors
COX = COX activity (PGE2 released after arachidonic acid); conditions: 1000 nM THC, 8 h

CCCCC/C=C\C/C=C\C/C=C\C/C=C\CCCC(=O)NCCCl [ACEA, N-(2-Chloroethyl)-5Z,8Z,11Z,14Z-eicosatetraenamide]
cytotoxic / apoptotic effect on hepatic myofibroblasts ([1]; serum-deprived cells): not cytotoxic | effect on forskolin-stimulated cAMP levels (CB1 receptors): reduced | effect on forskolin-stimulated cAMP levels (CB2 receptors [2]): had no effect | effect on DNA synthesis / growth [3]: had no effect

CCCCCCC(C)(C)c1ccc([C@@H]2C[C@H](O)CC[C@H]2CCCO)c(O)c1 [CP 55940, (−)-cis-3-[2-Hydroxy-4-(1,1-dimethylheptyl)phenyl]-trans-4-(3-hydroxypropyl)cyclohexanol]
cytotoxic / apoptotic effect on hepatic myofibroblasts ([1]; serum-deprived cells): cytotoxic

[Cl-].[Mn+3].[O-]c1ccccc1C=NCCN=Cc1ccccc1[O-] [EUK 8]
effect on caspase-3 activation elicited by THC (caspase-3): blunted | effect on the antiproliferative effect of THC [3]: did not affect

CCCCCCC(C)(C)c1cc(O)c2c(c1)OC(C)(C)[C@@H]1CC=C(CO)C[C@@H]21 [HU-210, (6aR)-trans-3-(1,1-Dimethylheptyl)-6a,7,10,10a-tetrahydro-1-hydroxy-6,6-dimethyl-6H-dibenzo[b,d]pyran-9-methanol]
cytotoxic / apoptotic effect on hepatic myofibroblasts ([1]; serum-deprived cells): cytotoxic

CCCn1c(C)c(C(=O)c2cccc3ccccc23)c2ccccc21 [JWH-015, (2-Methyl-1-propyl-1H-indol-3-yl)-1-naphthalenylmethanone]
cytotoxic / apoptotic effect on hepatic myofibroblasts ([1]; serum-deprived cells): apoptotic | IC50 ([1]; serum-deprived cells): 1000 nM | cytotoxic / apoptotic effect on hepatic myofibroblasts ([1]; serum-deprived cells, listed as JW-015): reproduced | effect on DNA synthesis / growth [3]: reproduced | IC50 [3]: 150 nM | maximal reduction of PDGF-BB-stimulated DNA synthesis [3]: 60%

CC(=O)N[C@@H](CS)C(=O)O [NAC, N-Acetyl Cysteine]
effect on caspase-3 activation elicited by THC (caspase-3): blunted | effect on the antiproliferative effect of THC [3]: did not affect

CS(=O)(=O)Nc1ccc([N+](=O)[O-])cc1OC1CCCCC1 [NS-398, N-(2-cyclohexyloxy-4-nitrophenyl)methane sulfonamide]
effect on cytotoxic effect / cell death triggered by THC ([1]; pretreatment before THC): did not affect | effect on caspase-3 activation elicited by THC (caspase-3): did not affect | effect on the antiproliferative effect of THC [3]: reduced | effect on the antiproliferative effect of THC ([3]; listed as NS 398): blunted

Cc1c(C(=O)NN2CCCCC2)nn(-c2ccc(Cl)cc2Cl)c1-c1ccc(Cl)cc1 [SR 141716, N-pipéridino-5-(4-chlorophényl)-1-(2,4-dichlorophényl)-4-méthylpyrazole-3-carboxamide]
effect on apoptosis elicited by HU-210 [1]: had no effect

[2H]C([2H])([2H])CCCCc1cc(O)c2c(c1)OC(C)(C)C1CCC(C)=CC21 (stereo not drawn) [THC, 6a,7,8,10a-Tetrahydro-6,6,9-trimethyl-3-(pentyl-5,5,5-d3)-6H-dibenzo(b,d)pyran-1-ol]
time to ROS production after exposure (reactive oxygen species): ≤ 20 min | increase in production of intracellular reactive oxygen species (reactive oxygen species; 3 μM THC): 1.5 fold | IC50 ([1]; Homo sapiens, serum-deprived cells): 1500 nM | concentration giving maximal decrease in cell survival ([1]; serum-deprived cells): 2 µM | cytotoxic / apoptotic effect on hepatic myofibroblasts ([1]; serum-deprived cells): cytotoxic effects | concentration giving maximal effect on [35S]GTPγS binding (CB2 receptors [4]): 100 nM | induction of COX-2 (COX-2): strong induction | cAMP levels in response to compound (cAMP): not raised | DNA laddering on agarose gel electrophoresis ([5]; 4 μM THC): dramatic DNA laddering | nuclear morphology (DAPI staining) ([5]; 4 μM THC): condensed nuclei | concentration giving maximal activation of [35S]GTPγS binding (CB2 receptors [6]): 10 nM | COX activity (COX): stimulates COX activity | time of peak caspase-3 activity (caspase-3): 4 to 6 h | maximal increase of caspase-3 activity (caspase-3; 4 μM THC, 5 hr (FIG. 6C)): 6.3±2 fold | maximal increase in caspase-3 activity (caspase-3; time course, peak after 4-6 hr): 6.7 fold | IC50 ([3]; Homo sapiens): 200 nM | maximal reduction of PDGF-BB-stimulated DNA synthesis [3]: 50%

Cc1c(C(=O)c2cccc3ccccc23)c2cccc3c2n1[C@H](CN1CCOCC1)CO3 [WIN-55.212-2, (R)-(+)-[2,3-Dihydro-5-methyl-3-(4-morpholinylmethyl)pyrrolo[1,2,3-de]-1,4-benzoxazin-6-yl]-1-naphthalenylmethanone mesylate]
cytotoxic / apoptotic effect on hepatic myofibroblasts ([1]; serum-deprived cells): cytotoxic

COC(=O)CC(NC(=O)C(C)NC(=O)C(NC(=O)OCc1ccccc1)C(C)C)C(=O)CF (stereo not drawn) [ZVAD-fmk, Z-val-Ala-Asp (OCH3)-Fluoromethyl ketone] (Cbz-Val-Ala-Asp(OMe)-CH2F; configuration not given here)
effect on THC-induced DNA laddering ([5]; 50 μM ZVAD): blocked | effect on caspase-3 activation elicited by THC (caspase-3): totally blunted

CCCCC/C=C\C/C=C\C/C=C\C/C=C\CCCC(=O)NCCO [anandamide, N-(2-Hydroxyethyl)-5Z,8Z,11Z,14Z-eicosatetraenamide]
cytotoxic / apoptotic effect on hepatic myofibroblasts ([1]; serum-deprived cells): cytotoxic

C=C(C)[C@@H]1CCC(C)=C[C@H]1c1c(O)cc(CCCCC)cc1O [cannabidiol]
cytotoxic / apoptotic effect on hepatic myofibroblasts ([1]; serum-deprived cells): reproduced | effect on DNA synthesis / growth [3]: reproduced

CC(C)Cc1ccc(C(C)C(=O)O)cc1 (stereo not drawn) [ibuprofen]
effect on caspase-3 activation elicited by THC (caspase-3): did not affect | effect on the antiproliferative effect of THC [3]: blunted

N-[1S)-endo-1,3,3,-trimethyl bicyclo[2.2.1]heptan-2-yl]-5-(choloro-3-methylphenyl)-1-(4-methyl-benzyl)-pyrazole-3-carboxamide [SR 144528]
effect on apoptosis elicited by HU-210 [1]: prevented | effect of compound alone on cell viability ([1]; without THC): had no effect | effect on caspase-3 activation elicited by THC (caspase-3): no activation of caspase-3 | effect of compound alone on caspase-3-like activity (caspase-3; without THC): had no effect | effect on the antiproliferative effect of THC [3]: strongly reduced
